Several values for one entry are separate records, joined by “and”; a condition that tells them apart may be missing. Equal values may be shown once.
Test system: respiratory syncytial virus F protein
Assay: Immunization studies, anti-RSV-F titers
Type: in vivo
Conditions: anti-RSV-F titer, BALB/c, liposomes with 0.1 μg vA317 replicon (naked: 1 μg); for 2wp1 pool 1 / 2wp1 pool 2: 2 weeks after first dose; for 2wp2 pool 1 / 2wp2 pool 2: 2 weeks after second dose; for 4wp2 pool 1 / 4wp2 pool 2: 4 weeks after second dose
Experimental: BALB/c were immunized with liposomes comprising DSPC, cholesterol, and various lipids of the invention (or, for comparison, the cationic lipid 1,2-dilinoleyloxy-N,N-dimethyl-3-aminopropane or ‘DLinDMA’). The liposomes encapsulated 0.1 μg of “vA317” self-replicating RNA replicon which encodes respiratory syncytial virus F protein (see WO2012/031043). […] Doses were given either on days 0 & 21 or days 0 & 42. Immune responses were assessed 2 weeks after each dose (2wp1, 2wp2), and in some cases also at 4 weeks after the second dose (4wp2).

In the case of `CCCCC/C=C\C/C=C\CCCCCCCCOc1cc(CCCOC(=O)CCN(C)C)cc(OCCCCCCCC/C=C\C/C=C\CCCCC)c1` [Example 81, 3-(3,5-bis((9Z,12Z)-octadeca-9,12-dien-1-yloxy)phenyl)propyl 3-(dimethylamino)propanoate], the “2wp1 pool 1” value (course A = days 0 & 21) is reported as 1779, the “2wp1 pool 2” value (course A = days 0 & 21) is reported as 1553 and the “2wp2 pool 1” value (course A = days 0 & 21) is reported as 24648. For the same compound, the “2wp2 pool 2” value (course A = days 0 & 21) was 15304, the “4wp2 pool 1” value (course A = days 0 & 21) was 41921 and the “4wp2 pool 2” value (course A = days 0 & 21) was 34684.
With `CCCCC/C=C\C/C=C\CCCCCCCCOc1cc(C(=O)OCCCN(C)C)cc(OCCCCCCCC/C=C\C/C=C\CCCCC)n1` [Example 25, 3-(dimethylamino)propyl 2,6-bis((9Z,12Z)-octadeca-9,12-dien-1-yloxy)isonicotinate] the “2wp1 pool 1” value (course A = days 0 & 21) was 1217, the “2wp1 pool 2” value (course A = days 0 & 21) was 1883 and the “2wp2 pool 1” value (course A = days 0 & 21) was 1611. For the same compound, the “2wp2 pool 2” value (course A = days 0 & 21) was 1156, the “4wp2 pool 1” value (course A = days 0 & 21) was 2850 and the “4wp2 pool 2” value (course A = days 0 & 21) was 1767.
For `CCCCC/C=C\C/C=C\CCCCCCCC(=O)OCc1cc(COC(=O)CCCCCCC/C=C\C/C=C\CCCCC)cc(COC(=O)OCCN(C)C)c1` [Example 70, (9Z,9′Z,12Z,12′Z)-(5-((((2-(dimethylamino)ethoxy)carbonyl)oxy)methyl)-1,3-phenylene)bis(methylene)bis(octadeca-9,12-dienoate)], the “2wp1 pool 1” value (course A = days 0 & 21) was 1416, the “2wp1 pool 2” value (course A = days 0 & 21) was 3110 and the “2wp2 pool 1” value (course A = days 0 & 21) was 31550. The “2wp2 pool 2” value (course A = days 0 & 21) was 20124, the “4wp2 pool 1” value (course A = days 0 & 21) was 18779 and the “4wp2 pool 2” value (course A = days 0 & 21) was 18358.
With `CCCCC/C=C\C/C=C\CCCCCCCC(=O)OCc1cc(COC(=O)CCCCCCC/C=C\C/C=C\CCCCC)cc(COC(=O)OCCCN(CC)CC)c1` [Example 69, (9Z,9′Z,12Z,12′Z)-(5-((((3-(diethylamino)propoxy)carbonyl)oxy)methyl)-1,3-phenylene)bis(methylene)bis(octadeca-9,12-dienoate)] the “2wp1 pool 1” value (course A = days 0 & 21) was 2853, the “2wp1 pool 2” value (course A = days 0 & 21) was 4481 and the “2wp2 pool 1” value (course A = days 0 & 21) was 23851. For the same compound, the “2wp2 pool 2” value (course A = days 0 & 21) was 20793, the “4wp2 pool 1” value (course A = days 0 & 21) was 19075 and the “4wp2 pool 2” value (course A = days 0 & 21) was 21504.
In the case of `CCCCC/C=C\C/C=C\CCCCCCCCOCC(CN(C)C)OCCCCCCCC/C=C\C/C=C\CCCCC` (stereo not drawn) [DLinDMA, 1,2-dilinoleyloxy-N,N-dimethyl-3-aminopropane, reference compound], the “4wp2 pool 1” value (course A = days 0 & 21) is reported as 26504 and 50799, the “4wp2 pool 2” value (course A = days 0 & 21) is reported as 28008 and 35992 and the “2wp1 pool 1” value (course B = days 0 & 42) is reported as 13. For the same compound, the “2wp1 pool 2” value (course B = days 0 & 42) was 4, the “2wp2 pool 1” value (course B = days 0 & 42) was 18290 and the “2wp2 pool 2” value (course B = days 0 & 42) was 5538. For the same compound, the “4wp2 pool 1” value (course B = days 0 & 42) was 13936 and the “4wp2 pool 2” value (course B = days 0 & 42) was 7020.
`CCCCC/C=C\C/C=C\CCCCCCCC(=O)OCc1cc(COC(=O)CCCCCCC/C=C\C/C=C\CCCCC)cc(COC(=O)CCN(C)C)c1` [Example 29, (9Z,9′Z,12Z,12′Z)-(5-(((3-(dimethylamino)propanoyl)oxy)methyl)-1,3-phenylene)bis(methylene)bis(octadeca-9,12-dienoate)] was tested, and the “2wp1 pool 1” value (course A = days 0 & 21) was 2101, the “2wp1 pool 2” value (course A = days 0 & 21) was 3584 and the “2wp2 pool 1” value (course A = days 0 & 21) was 12529. For the same compound, the “2wp2 pool 2” value (course A = days 0 & 21) was 18669, the “4wp2 pool 1” value (course A = days 0 & 21) was 23930 and the “4wp2 pool 2” value (course A = days 0 & 21) was 37278.
With `CCCCC/C=C\C/C=C\CCCCCCCCOc1cc(COC(=O)CCCN(C)C)cc(OCCCCCCCC/C=C\C/C=C\CCCCC)c1` [Example 13, 3,5-bis((9Z,12Z)-octadeca-9,12-dien-1-yloxy)benzyl 4-(dimethylamino)butanoate] the “2wp1 pool 1” value (course A = days 0 & 21) was 495, the “2wp1 pool 2” value (course A = days 0 & 21) was 620 and the “2wp2 pool 1” value (course A = days 0 & 21) was 7157. The “2wp2 pool 2” value (course A = days 0 & 21) was 12316.

Source: US10124065B2, “Lipids and lipid compositions for the delivery of active agents” (Novartis AG, priority 2013, dated 2018)
